In patent publication US8158656B2, “2-indolinone derivatives as multi-target protein kinase inhibitors and histone deacetylase inhibitors” (Shenzhen Chipscreen Biosciences Ltd., priority 2008, dated 2012):

Key:
U937 = assay: Tumor cell proliferation (MTS), U937; type: cell-based; settings: Homo sapiens, U-937, U937, 72 hours
Method: Measurement of in vivo cell proliferation:
Tumor cells were trypsinized and plated into 96-well plates at 3,000 per well and incubated in complete medium with 10% FBS for 24 hours. Compounds were added over a final concentration range of 100 μmol/L to 100 nmol/L in 0.1% DMSO and incubated for 72 hours in complete medium. The effects on proliferation were determined by addition of MTS reagent (Promega) according to the instruction, incubation for 2 hours at 37° C. in CO2 incubator, and record the absorbance at 490 nm using an ELISA plate reader.

HDAC4/5 = assay: MEF2 reporter assay in HeLa cells; type: cell-based, human; settings: for HDAC4/5 (MEF2 reporter assay) % Max Resp of CS055 at 3 μM: relative to CS055 at 3 μM; for EC50: 24 hours
Method: HDAC subtype selectivity inhibition assay of tested compounds was carried out by several reporter gene assays experiments. Briefly, HeLa cells were seeded in 96-well plates the day before transfection to give a confluence of 50-80%. Cells were transfected with one of reporter gene plasmid containing a promoter sequence or response element upstream of a luciferase gene construct using FuGene6 transfection reagent according to the manufacturer's instruction (Roche). The promoters or response elements including p21-promoter, gdf11-promoter, MEF-binding element (MEF2), Nur77-promoter were fused upstream to the luciferase gene reporter construct. For normalizing the transfection efficiency, a GFP expression plasmid was cotransfected. Cells were allowed to express protein for 24 hours followed by addition of individual compounds or the vehicle (DMSO). 24 hours later the cells were harvested, and the luciferase assay and GFP assay were performed using corresponding assay kits according to the manufacturer's instructions (Promega).

Compound: Cc1[nH]c(/C=N/N=C2\C(=O)Nc3ccc(F)cc32)c(C)c1C(=O)NCCCCNc1ccc(C(=O)Nc2ccc(F)cc2N)cn1 [Example 20, N-(2-amino-4-fluorophenyl)-6-(4-(2-(((5-fluoro-2-oxoindolin-3-ylidene)-hydrazono)methyl)-3,5-dimethyl-1H-pyrrole-4-carboxamido)butylamino)nicotinamide]
- GI50 (U937): > 60 µM
- HDAC4/5 (MEF2 reporter assay) % Max Resp of CS055 at 3 μM (HDAC4/5): 16.3%

Compound: Cc1[nH]c(/C=N/N=C2\C(=O)Nc3ccc(F)cc32)c(C)c1C(=O)NCCNc1ccc(C(=O)Nc2ccc(F)cc2N)cn1 [Example 14, N-(2-amino-4-fluorophenyl)-6-(2-(2-(((5-fluoro-2-oxoindolin-3-ylidene)-hydrazono)methyl)-3,5-dimethyl-1H-pyrrole-4-carboxamido)ethylamino)nicotinamide]
- GI50 (U937): > 60 µM
- HDAC4/5 (MEF2 reporter assay) % Max Resp of CS055 at 3 μM (HDAC4/5): 2.4%

Compound: Cc1[nH]c(/C=N/N=C2\C(=O)Nc3ccc(F)cc32)c(C)c1C(=O)NCCCNc1ccc(C(=O)Nc2ccccc2N)cn1 [Example 7, N-(2-aminophenyl)-6-(3-(2-(((5-fluoro-2-oxoindolin-3-ylidene)hydrazono)-methyl)-3,5-dimethyl-1H-pyrrole-4-carboxamido)propylamino)nicotinamide]
- GI50 (U937): > 60 µM
- HDAC4/5 (MEF2 reporter assay) % Max Resp of CS055 at 3 μM (HDAC4/5): 2.6%

Compound: Cc1[nH]c(/C=N/N=C2\C(=O)Nc3ccc(F)cc32)c(C)c1C(=O)NCCCNc1ccc(C(=O)Nc2ccc(F)cc2N)cn1 [Example 17, N-(2-amino-4-fluorophenyl)-6-(3-(2-(((5-fluoro-2-oxoindolin-3-ylidene)-hydrazono)methyl)-3,5-dimethyl-1H-pyrrole-4-carboxamido)propylamino)nicotinamide]
- GI50 (U937): > 60 µM
- HDAC4/5 (MEF2 reporter assay) % Max Resp of CS055 at 3 μM (HDAC4/5): 10.8%

Compound: Cc1[nH]c(/C=C2\C(=O)Nc3ccc(F)cc32)c(C)c1C(=O)NCCNc1ccc(C(=O)Nc2ccccc2N)cn1 [Example 3, (Z)-N-(2-aminophenyl)-6-(2-(2-((5-fluoro-2-oxoindolin-3-ylidene)methyl)-3,5-dimethyl-1H-pyrrole-4-carboxamido)ethylamino)nicotinamide]
- GI50 (U937): > 60 µM
- EC50 (HDAC4/5): 2200 nM
- HDAC4/5 (MEF2 reporter assay) % Max Resp of CS055 at 3 μM (HDAC4/5): 83.2%

Compound: Cc1[nH]c(/C=C2\C(=O)Nc3ccc(F)cc32)c(C)c1C(=O)NCCCCNc1ccc(C(=O)Nc2ccccc2N)cn1 [Example 9, (Z)-N-(2-aminophenyl)-6-(4-(2-((5-fluoro-2-oxoindolin-3-ylidene)methyl)-3,5-dimethyl-1H-pyrrole-4-carboxamido)butylamino)nicotinamide]
- GI50 (U937): > 60 µM
- EC50 (HDAC4/5): 20000 nM
- HDAC4/5 (MEF2 reporter assay) % Max Resp of CS055 at 3 μM (HDAC4/5): 53.6%

Compound: Cc1[nH]c(/C=C2\C(=O)Nc3ccc(F)cc32)c(C)c1C(=O)NCCCCNc1ccc(C(=O)Nc2ccc(F)cc2N)cn1 [Example 19, (Z)-N-(2-amino-4-fluorophenyl)-6-(4-(2-((5-fluoro-2-oxoindolin-3-ylidene)-methyl)-3,5-dimethyl-1H-pyrrole-4-carboxamido)butylamino)nicotinamide]
- GI50 (U937): > 60 µM
- HDAC4/5 (MEF2 reporter assay) % Max Resp of CS055 at 3 μM (HDAC4/5): 1.9%

Compound: Cc1[nH]c(/C=C2\C(=O)Nc3ccc(F)cc32)c(C)c1C(=O)NCCCNc1ccc(C(=O)Nc2ccc(F)cc2N)cn1 [Example 16, (Z)-N-(2-amino-4-fluorophenyl)-6-(3-(2-((5-fluoro-2-oxoindolin-3-ylidene)-methyl)-3,5-dimethyl-1H-pyrrole-4-carboxamido)propylamino)nicotinamide]
- GI50 (U937): > 60 µM
- HDAC4/5 (MEF2 reporter assay) % Max Resp of CS055 at 3 μM (HDAC4/5): −0.2%

Compound: Cc1[nH]c(/C=C2\C(=O)Nc3ccc(F)cc32)c(C)c1C(=O)NCCCNc1ccc(C(=O)Nc2ccccc2N)cn1 [Example 6, (Z)-N-(2-aminophenyl)-6-(3-(2-((5-fluoro-2-oxoindolin-3-ylidene)methyl)-3,5-dimethyl-1H-pyrrole-4-carboxamido)propylamino)nicotinamide]
- GI50 (U937): > 60 µM
- EC50 (HDAC4/5): 1000 nM
- HDAC4/5 (MEF2 reporter assay) % Max Resp of CS055 at 3 μM (HDAC4/5): 44.2%

Compound: Cc1[nH]c(/C=N/N=C2\C(=O)Nc3ccc(F)cc32)c(C)c1C(=O)NCCNc1ccc(C(=O)Nc2ccccc2N)cn1 [Example 4, N-(2-aminophenyl)-6-(2-(2-(((5-fluoro-2-oxoindolin-3-ylidene)hydrazono)-methyl)-3,5-dimethyl-1H-pyrrole-4-carboxamido)ethylamino)nicotinamide]
- GI50 (U937): > 60 µM
- HDAC4/5 (MEF2 reporter assay) % Max Resp of CS055 at 3 μM (HDAC4/5): 4.9%

Compound: Cc1[nH]c(/C=C2\C(=O)Nc3ccc(F)cc32)c(C)c1C(=O)NCCNc1ccc(C(=O)Nc2ccc(F)cc2N)cn1 [Example 13, (Z)-N-(2-amino-4-fluorophenyl)-6-(2-(2-((5-fluoro-2-oxoindolin-3-ylidene)-methyl)-3,5-dimethyl-1H-pyrrole-4-carboxamido)ethylamino)nicotinamide]
- GI50 (U937): > 60 µM
- HDAC4/5 (MEF2 reporter assay) % Max Resp of CS055 at 3 μM (HDAC4/5): 0.5%

Compound: Cc1[nH]c(/C=N/N=C2\C(=O)Nc3ccc(F)cc32)c(C)c1C(=O)NCCCCNc1ccc(C(=O)Nc2ccccc2N)cn1 [Example 10, N-(2-aminophenyl)-6-(4-(2-(((5-fluoro-2-oxoindolin-3-ylidene)hydrazono)-methyl)-3,5-dimethyl-1H-pyrrole-4-carboxamido)butylamino)nicotinamide]
- GI50 (U937): > 60 µM
- HDAC4/5 (MEF2 reporter assay) % Max Resp of CS055 at 3 μM (HDAC4/5): 12.8%
